According to BindingDB's records for doi:10.1021/jm049478u (Johnson & Johnson Pharmaceutical Research & Development, 2005):

Target: Glycogen synthase kinase-3 beta (Oryctolagus cuniculus)
Assay: Inhibition of rabbit Glycogen synthase kinase-3 beta

- IC50: 270 nM
Compound: CN(C)CCCn1nc(C2=C(c3cn(-c4ccccc4)c4ccccc34)C(=O)NC2=O)c2ccccc21 [3-[1-(3-Dimethylamino-propyl)-1H-indazol-3-yl]-4-(1-phenyl-1H-indol-3-yl)-pyrrole-2,5-dione]
